± gives the uncertainty stated by the source.
Tests used:
[1] = system: EVSA-T; experiment: % viability in DMSO, miRNA mimic relative to NTC in DMSO; higher = less cytotoxic; settings: drug used in drug arm: GDC-0980 2.5 uM; treatment: DMSO
Experimental: (§1)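 26 miRNA mimics were transfected into 8 cancer cell lines in triplicate. 48 h post-transfection, cells were treated 72 h with DMSO or a line-specific drug, then recovered 72 h drug-free. Drugs: COLO-205 AZ628 1 uM, MKN-45 crizotinib 1 uM, NCI-H596 paclitaxel 6 uM, EVSA-T GDC-0980 2.5 uM, M14 AZ628 1 uM, HCC-1954 GDC-0980 2.5 uM, NCI-H441 carboplatin 2.5 uM, SKBr3 lapatinib 1 uM. Surviving cells are expressed as % of NTC-transfected cells in DMSO (the NTC drug arm itself is about 30-50%), mean +- SEM.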

[2] = system: M14; experiment: as above; settings: drug used in drug arm: AZ628 1 uM; treatment: DMSO
Experimental: as §1

[3] = system: COLO-205; experiment: as above; settings: drug used in drug arm: AZ628 1 uM; treatment: DMSO
Experimental: as §1

[4] = system: MKN-45; experiment: as above; settings: drug used in drug arm: crizotinib 1 uM; treatment: DMSO
Experimental: as §1

[5] = system: NCI-H596; experiment: as above; settings: drug used in drug arm: paclitaxel 6 uM; treatment: DMSO
Experimental: as §1

[6] = system: SK-BR-3; experiment: as above; settings: drug used in drug arm: lapatinib 1 uM; treatment: DMSO
Experimental: as §1

[7] = system: HCC-1954; experiment: as above; settings: drug used in drug arm: GDC-0980 2.5 uM; treatment: DMSO
Experimental: as §1

[8] = system: NCI-H441; experiment: as above; settings: drug used in drug arm: carboplatin 2.5 uM; treatment: DMSO
Experimental: as §1

[9] = system: EVSA-T; experiment: % viability under drug (72 h drug + 72 h recovery), miRNA mimic relative to NTC in DMSO; higher = more surviving cells; settings: drug used in drug arm: GDC-0980 2.5 uM; treatment: drug
Experimental: as §1

[10] = system: M14; experiment: as above; settings: drug used in drug arm: AZ628 1 uM; treatment: drug
Experimental: as §1

[11] = system: COLO-205; experiment: as above; settings: drug used in drug arm: AZ628 1 uM; treatment: drug
Experimental: as §1

[12] = system: MKN-45; experiment: as above; settings: drug used in drug arm: crizotinib 1 uM; treatment: drug
Experimental: as §1

[13] = system: NCI-H596; experiment: as above; settings: drug used in drug arm: paclitaxel 6 uM; treatment: drug
Experimental: as §1

[14] = system: SK-BR-3; experiment: as above; settings: drug used in drug arm: lapatinib 1 uM; treatment: drug
Experimental: as §1

[15] = system: HCC-1954; experiment: as above; settings: drug used in drug arm: GDC-0980 2.5 uM; treatment: drug
Experimental: as §1

[16] = system: NCI-H441; experiment: as above; settings: drug used in drug arm: carboplatin 2.5 uM; treatment: drug
Experimental: as §1

[17] = system: PC9; experiment: cell count fold change with erlotinib, miRNA mimic vs non-targeting control (log2 ratio); higher = more drug-tolerant survivors than NTC; settings: erlotinib 1 µM; 72 h drug + 72 h drug-free recovery; perturbation: miRNA mimic

Row | Sequence | % viability in DMSO [1] [%] | % viability in DMSO [2] [%] | % viability in DMSO [3] [%] | % viability in DMSO [4] [%] | % viability in DMSO [5] [%] | % viability in DMSO [6] [%] | % viability in DMSO [7] [%] | % viability in DMSO [8] [%] | % viability under drug [9] [%] | % viability under drug [10] [%] | % viability under drug [11] [%] | % viability under drug [12] [%] | % viability under drug [13] [%] | % viability under drug [14] [%] | % viability under drug [15] [%] | % viability under drug [16] [%] | cell count fold change with erlotinib [17]
1 | AAAAGUAAUUGCGGAUUUUGCC | 85.7 ± 0.94 | 119 ± 24 | 101 ± 4.2 | 136 ± 19 | 95.4 ± 3.6 | 73.43 ± 0.24 | 117 ± 9.9 | 182 ± 14 | 0.608 ± 0.1 | 18 ± 0.42 | 42.6 ± 1 | 4.35 ± 0.71 | 1.3 ± 0.04 | 45.73 ± 0.37 | 3.99 ± 0.13 | 29.7 ± 2.4 | 0.467
2 | AAAAGUAAUUGUGGUUUUUGCC | 71.9 ± 2.7 | 85.4 ± 3.8 | 95 ± 6.9 | 156 ± 2.2 | 98.8 ± 8.3 | 80.3 ± 4.8 | 110 ± 9.3 | 106 ± 7.8 | 0.3585 ± 0.0025 | 21.9 ± 1.3 | 46.4 ± 1.6 | 4.45 ± 0.12 | 0.738 ± 0.0075 | 39.2 ± 11 | 2.67 ± 0.17 | 24.2 ± 3.6 | 0.561
3 | AAAAGUACUUGCGGAUUUUGCU | 64.63 ± 0.49 | 99.3 ± 19 | 101 ± 4.5 | 142 ± 17 | 89.1 ± 8.1 | 161 ± 7.2 | 100 ± 4.8 | 67.7 ± 7.8 | 1.66 ± 0.013 | 22.8 ± 0.71 | 49.9 ± 1.1 | 4.2 ± 0.41 | 2.53 ± 0.066 | 49.8 ± 2.7 | 4.02 ± 0.49 | 11.3 ± 2.9 | -3.1
4 | AACGCCAUUAUCACACUAAAUA | 23.6 ± 3.1 | 73.5 ± 3.2 | 106 ± 2 | 27.1 ± 3.8 | 62.43 ± 0.46 | 22.3 ± 5.5 | 81.2 ± 2.9 | 13.2 ± 1.1 | 0.459 ± 0.079 | 12.8 ± 0.75 | 43 ± 1.6 | 1.35 ± 0.4 | 0.97 ± 0.026 | 11.5 ± 1.4 | 2.25 ± 0.44 | 10.2 ± 2.8 | 0.733
5 | AAGUGCCGCCAUCUUUUGAGUGU | 12.3 ± 1.3 | 15.7 ± 1.4 | 100.8 ± 0.28 | 35.27 ± 0.22 | 37.5 ± 5.6 | 22.2 ± 6.5 | 11.8 ± 0.37 | 13.71 ± 0.039 | 0.157 | 1.98 ± 0.13 | 30.8 ± 0.9 | 0.444 ± 0.042 | 0.265 ± 0.011 | 8.32 ± 0.77 | 0.919 ± 0.19 | 7.71 ± 2.4 | -4.45
6 | ACAGUAGAGGGAGGAAUCGCAG | 25.6 ± 1.8 | 20 ± 3.4 | 94 ± 5.5 | 31.6 ± 9.1 | 65.6 ± 2.4 | 67.8 ± 13 | 64.5 ± 2.5 | 34.6 ± 18 | 0.124 ± 0.035 | 4.04 ± 0.76 | 37.6 ± 4.1 | 0.428 ± 0.005 | 0.53 ± 0.13 | 25.7 ± 0.71 | 1.37 ± 0.43 | 38.6 ± 6.2 | -3.56
7 | AGUUAAUGAAUCCUGGAAAGU | 26.1 ± 11 | 55.5 ± 2.1 | 101.6 ± 0.44 | 40.6 ± 10 | 25.4 ± 6.1 | 33.3 ± 1.6 | 48.3 ± 2 | 61.6 ± 15 | 0.344 ± 0.059 | 9.17 ± 1.3 | 43.4 ± 1.2 | 1.55 ± 0.042 | 0.869 ± 0.086 | 19.2 ± 4 | 1.99 ± 0.45 | 14.3 ± 0.47 | -4.81
8 | CAAAAGUAAUUGUGGAUUUUGU | 39.3 ± 3.4 | 62.9 ± 9 | 106 ± 1.7 | 40.7 ± 3.5 | 73.6 ± 2.9 | 46.3 ± 3.1 | 88.3 ± 15 | 62.3 ± 2.6 | 0.243 ± 0.018 | 14.1 ± 0.89 | 44.6 ± 3.2 | 1.49 ± 0.11 | 0.808 ± 0.028 | 20.2 ± 1.6 | 1.55 ± 0.17 | 13.6 ± 2 | -2.88
9 | CAAUGUUUCCACAGUGCAUCAC | 2.27 ± 1.2 | 42.7 ± 9 | 98.6 ± 2 | 2.31 ± 0.74 | 15.2 ± 1.5 | 16.8 ± 1.4 | 7.62 ± 0.18 | 2.78 ± 0.14 | 0.155 ± 0.049 | 5.66 ± 1.1 | 29.2 ± 4.1 | 0.794 ± 0.25 | 0.731 ± 0.068 | 9.29 ± 0.1 | 1.26 ± 0.032 | 4.19 ± 0.47 | -2.66
